Experiments:
ABUTH (Velvetleaf) = assay: Postemergence herbicidal evaluation; assay type: in vivo, Abutilon theophrasti; details: postemergence
Method in brief: (§1)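 Young plants, roughly two weeks from seeding, receive the active ingredient as a sprayed dispersion (acetone/water 50/50, 0.5% TWEEN 20) at 40 psi. Doses span about 0.0156 to 0.500 kg/ha. A visual score from 0 to 9 compares treated with control plants four to five weeks on.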

AMBEL (Ragweed, Common) = assay: Postemergence herbicidal evaluation; assay type: in vivo, Ambrosia artemisifolia; details: postemergence
Method in brief: as §1

[1] = tested on: IPOHE (Morningglory, Ivyleaf); assay: Postemergence herbicidal evaluation; assay type: in vivo, Ipomoea hederacea; details: postemergence
Method in brief: as §1

ECHCG (Barnyardgrass) [2] = assay: Postemergence herbicidal evaluation; assay type: in vivo, Echinochloa crus-galli; details: postemergence
Method in brief: as §1

SETVI (Foxtail, Green) = assay: Postemergence herbicidal evaluation; assay type: in vivo, Setaria viridis; details: postemergence
Method in brief: as §1

[3] = tested on: GLXMAW (Soybean, Williams); assay: Postemergence herbicidal evaluation; assay type: in vivo, Glycine max, (L.) Merr. cv Williams; details: postemergence
Method in brief: as §1

[4] = tested on: TRZAWR (Wheat, Winter, cv Riband); assay: Postemergence herbicidal evaluation; assay type: in vivo, Triticum aestivum; details: postemergence
Method in brief: as §1

CASOB (Sicklepod) = assay: Preemergence herbicidal evaluation; assay type: in vivo, Cassia obtusifolia; details: rated 4-5 weeks after treatment
Method in brief: (§2)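 Herbicidal effect scored visually, 0-9, at 4 to 5 weeks against a control; compound applied preemergence by aqueous acetone spray to seeded soil at about 0.0156 to 0.500 kg/ha.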

[5] = tested on: CHEAL (Lambsquarters, Common); assay: Preemergence herbicidal evaluation; assay type: in vivo, Chenopodium album; details: rated 4-5 weeks after treatment
Method in brief: as §2

GALAP (Galium) = assay: Preemergence herbicidal evaluation; assay type: in vivo, Galium aparine; details: rated 4-5 weeks after treatment
Method in brief: as §2

[6] = tested on: IPOHE (Morningglory, Ivyleaf); assay: Preemergence herbicidal evaluation; assay type: in vivo, Ipomoea hederacea; details: rated 4-5 weeks after treatment
Method in brief: as §2

ECHCG (Barnyardgrass) [7] = assay: Preemergence herbicidal evaluation; assay type: in vivo, Echinochloa crus-galli; details: rated 4-5 weeks after treatment
Method in brief: as §2

ZEAMX (Corn, Field) = assay: Preemergence herbicidal evaluation; assay type: in vivo, Zea mays; details: rated 4-5 weeks after treatment
Method in brief: as §2

Cn1c(C(F)(F)F)cc(=O)n(-c2cc(N=C3SCC(=O)N3Cc3ccco3)c(Cl)cc2F)c1=O [Compound 122, 3-{4-Chloro-2-fluoro-5-[(3-furfuryl-4-oxo-2-thiazolidinylidene)amino]phenyl}-1-methyl-6-(trifluoromethyl)-2,4(1H,3H)-pyrimidinedione]
6.5: herbicidal rating GLXMAW ([3]; rate 0.0313 kg/ha) | herbicidal rating GLXMAW ([3]; rate 0.0625 kg/ha) | herbicidal rating GLXMAW ([3]; rate 0.1250 kg/ha)
3.0: herbicidal rating ECHCG (ECHCG (Barnyardgrass) [2]; rate 0.0313 kg/ha) | herbicidal rating TRZAWR ([4]; rate 0.0156 kg/ha) | Preemergence herbicidal rating CASOB (CASOB (Sicklepod); rate 0.5000 kg/ha) | Preemergence herbicidal rating GALAP (GALAP (Galium); rate 0.0156 kg/ha) | Preemergence herbicidal rating GALAP (GALAP (Galium); rate 0.0625 kg/ha)
0.0: Preemergence herbicidal rating CASOB (CASOB (Sicklepod); rate 0.0156 kg/ha) | Preemergence herbicidal rating CASOB (CASOB (Sicklepod); rate 0.0313 kg/ha) | Preemergence herbicidal rating CASOB (CASOB (Sicklepod); rate 0.0625 kg/ha) | Preemergence herbicidal rating CASOB (CASOB (Sicklepod); rate 0.1250 kg/ha) | Preemergence herbicidal rating CASOB (CASOB (Sicklepod); rate 0.2500 kg/ha) | Preemergence herbicidal rating IPOHE ([6]; rate 0.0156 kg/ha) | Preemergence herbicidal rating IPOHE ([6]; rate 0.0313 kg/ha) | Preemergence herbicidal rating IPOHE ([6]; rate 0.0625 kg/ha) | Preemergence herbicidal rating ECHCG (ECHCG (Barnyardgrass) [7]; rate 0.0156 kg/ha) | Preemergence herbicidal rating ECHCG (ECHCG (Barnyardgrass) [7]; rate 0.0313 kg/ha) | Preemergence herbicidal rating ECHCG (ECHCG (Barnyardgrass) [7]; rate 0.0625 kg/ha) | Preemergence herbicidal rating ECHCG (ECHCG (Barnyardgrass) [7]; rate 0.1250 kg/ha) | Preemergence herbicidal rating ECHCG (ECHCG (Barnyardgrass) [7]; rate 0.2500 kg/ha) | Preemergence herbicidal rating ZEAMX (ZEAMX (Corn, Field); rate 0.0156 kg/ha) | Preemergence herbicidal rating ZEAMX (ZEAMX (Corn, Field); rate 0.0313 kg/ha) | Preemergence herbicidal rating ZEAMX (ZEAMX (Corn, Field); rate 0.0625 kg/ha) | Preemergence herbicidal rating ZEAMX (ZEAMX (Corn, Field); rate 0.1250 kg/ha) | Preemergence herbicidal rating ZEAMX (ZEAMX (Corn, Field); rate 0.2500 kg/ha)
9.0: herbicidal rating ABUTH (ABUTH (Velvetleaf); rate 0.0156 kg/ha) | herbicidal rating ABUTH (ABUTH (Velvetleaf); rate 0.0313 kg/ha) | herbicidal rating ABUTH (ABUTH (Velvetleaf); rate 0.0625 kg/ha) | herbicidal rating ABUTH (ABUTH (Velvetleaf); rate 0.1250 kg/ha) | herbicidal rating AMBEL (AMBEL (Ragweed, Common); rate 0.0313 kg/ha) | herbicidal rating AMBEL (AMBEL (Ragweed, Common); rate 0.0625 kg/ha) | herbicidal rating AMBEL (AMBEL (Ragweed, Common); rate 0.1250 kg/ha) | herbicidal rating IPOHE ([1]; rate 0.0156 kg/ha) | herbicidal rating IPOHE ([1]; rate 0.0313 kg/ha) | herbicidal rating IPOHE ([1]; rate 0.0625 kg/ha) | herbicidal rating IPOHE ([1]; rate 0.1250 kg/ha) | herbicidal rating SETVI (SETVI (Foxtail, Green); rate 0.0625 kg/ha) | herbicidal rating SETVI (SETVI (Foxtail, Green); rate 0.1250 kg/ha) | Preemergence herbicidal rating CHEAL ([5]; rate 0.0156 kg/ha) | Preemergence herbicidal rating CHEAL ([5]; rate 0.0313 kg/ha) | Preemergence herbicidal rating CHEAL ([5]; rate 0.1250 kg/ha) | Preemergence herbicidal rating CHEAL ([5]; rate 0.2500 kg/ha) | Preemergence herbicidal rating CHEAL ([5]; rate 0.5000 kg/ha)
5.5: herbicidal rating GLXMAW ([3]; rate 0.0156 kg/ha)
5.0: herbicidal rating ECHCG (ECHCG (Barnyardgrass) [2]; rate 0.1250 kg/ha) | herbicidal rating TRZAWR ([4]; rate 0.1250 kg/ha)
1.0: Preemergence herbicidal rating IPOHE ([6]; rate 0.2500 kg/ha) | Preemergence herbicidal rating IPOHE ([6]; rate 0.5000 kg/ha) | Preemergence herbicidal rating ECHCG (ECHCG (Barnyardgrass) [7]; rate 0.5000 kg/ha) | Preemergence herbicidal rating ZEAMX (ZEAMX (Corn, Field); rate 0.5000 kg/ha)
6.0: herbicidal rating SETVI (SETVI (Foxtail, Green); rate 0.0156 kg/ha) | Preemergence herbicidal rating GALAP (GALAP (Galium); rate 0.5000 kg/ha)
7.0: herbicidal rating AMBEL (AMBEL (Ragweed, Common); rate 0.0156 kg/ha) | herbicidal rating SETVI (SETVI (Foxtail, Green); rate 0.0313 kg/ha) | Preemergence herbicidal rating CHEAL ([5]; rate 0.0625 kg/ha)
4.5: herbicidal rating TRZAWR ([4]; rate 0.0625 kg/ha)
2.0: herbicidal rating ECHCG (ECHCG (Barnyardgrass) [2]; rate 0.0156 kg/ha) | Preemergence herbicidal rating GALAP (GALAP (Galium); rate 0.0313 kg/ha) | Preemergence herbicidal rating IPOHE ([6]; rate 0.1250 kg/ha)
3.5: herbicidal rating TRZAWR ([4]; rate 0.0313 kg/ha)
4.0: herbicidal rating ECHCG (ECHCG (Barnyardgrass) [2]; rate 0.0625 kg/ha) | Preemergence herbicidal rating GALAP (GALAP (Galium); rate 0.1250 kg/ha) | Preemergence herbicidal rating GALAP (GALAP (Galium); rate 0.2500 kg/ha)
